The format of this series is physicochemical. As for the experimental part:
840 mg of sildenafil base (Carbosynth) was introduced into 40 ml of 50% aqueous ethanol at an unadjusted pH of 7.7. […] Finally, the pH of the mixture was further lowered to a pH of approximately 4 by the introduction of additional 1M HCl upon which the mixture began to solubilize.
840 mg of sildenafil base (Carbosynth), together with 840 mg of sucralose was introduced into 40 ml of 50% aqueous ethanol at an unadjusted pH of 7.7. […] The pH of the mixture was further lowered to a pH of approximately 4.6 by the introduction of additional 1M HCl upon which the mixture began to solubilize. Additional 1M HCl was added to the mixture until it completely solubilized at a pH of 3.83.
945 mg of sildenafil base (Carbosynth), together with 945 mg of sucralose was introduced into 45 ml of 50% aqueous ethanol at an unadjusted pH of 7.7. […] The pH of the mixture was then lowered to by the stepwise introduction of 1M HCl during stirring until the mixture was fully solubilized at pH 4.92.

Structures are written as SMILES. Like-named read-outs stand apart in the source and are kept apart here.

For `CCCc1nn(C)c2c(=O)[nH]c(-c3cc(S(=O)(=O)N4CCN(C)CC4)ccc3OCC)nc12` [sildenafil base], the “pH at which the mixture completely solubilized” value amounted to 3.83 and the “pH at which the mixture was fully solubilized” value is listed as 4.92. For the same compound, the dissolution result (Example 1a: 840 mg in 40 ml, pH 5.6 (1M HCl), stirred 10 minutes) was “remaining opaque and undissolved”. Where the note is “Example 1a: 840 mg in 40 ml, stirred at pH 4.25 for 1 hour, final pH 4.28”, the dissolution entry is “totally transparent and without precipitate”. The dissolution result (Example 1a: 840 mg in 40 ml, unadjusted pH 7.7, stirring 10 minutes) is “remained undissolved”. In addition, the dissolution result (Example 1b: 840 mg with 840 mg sucralose in 40 ml, pH 5.6 (1M HCl), stirred 10 minutes) was “remaining opaque and undissolved”. For the same compound, the dissolution entry (Example 1b: 840 mg with 840 mg sucralose in 40 ml, unadjusted pH 7.7, stirring 10 minutes) is “remained undissolved”. Further, the dissolution result (Example 1c: 945 mg with 945 mg sucralose in 45 ml, unadjusted pH 7.7, stirring 10 minutes) is on record as “remained undissolved”.
